According to patent US4560662A, “Streptomyces antibioticus ATCC 31771 and process for obtaining same” (priority 1981, dated 1985):
In brackets after ≈: the same amount, converted by molar mass. Read-outs that look alike come from different tables or passages of the source.

How the values were obtained:
[1] = test system: Staphylococcus aureus ATCC 6538 P; experiment: Bacteriostatic power in solid medium (MIC), aerobic Gram positive; type: cell-based; conditions: Staphylococcus aureus
[2] = test system: Staphylococcus aureus LRP 14; experiment: as above; type: cell-based; conditions: Staphylococcus aureus
[3] = test system: Streptococcus faecalis LRP 7; experiment: as above; type: cell-based; conditions: Enterococcus faecalis
[4] = test system: Streptococcus faecalis sub. zymogenes ATCC 12958; experiment: as above; type: cell-based; conditions: Enterococcus faecalis
[5] = test system: Streptococcus pneumonieae ATCC 6303; experiment: as above; type: cell-based; conditions: Streptococcus
[6] = test system: Streptococcus pneumonieae LRP 52; experiment: as above; type: cell-based; conditions: Streptococcus
[7] = test system: Streptococcus pneumonieae LRP 53; experiment: as above; type: cell-based; conditions: Streptococcus
[8] = test system: Streptococcus pyogenes ATCC 8668; experiment: as above; type: cell-based; conditions: Streptococcus pyogenes
[9] = test system: Streptococcus pyogenes LRP 197; experiment: as above; type: cell-based; conditions: Streptococcus pyogenes
[10] = test system: Corynebacterium diphteriae LRP 24; experiment: as above; type: cell-based; conditions: Corynebacterium
[11] = test system: Micrococcus luteus ATCC 9341; experiment: as above; type: cell-based; conditions: Micrococcus luteus
[12] = test system: Micrococcus luteus ATCC 15957; experiment: as above; type: cell-based; conditions: Micrococcus luteus, ATCC15957, LRP 193, Erythromicina resistant, read-out: minimum inhibiting concentration
Excerpt: (§1) Turning now to an examination of the novel macrolide antibiotics produced according to the present invention, they are all characterized by a bacteriostatic spectrum like that of erythromycin and by the stability in acidic environment, whereby their direct administration by oral route is possible, without having recourse to esters and/or salts, showing the afore mentioned disadvantages and problems. The above is confirmed by the following Table 1, wherein the MIC values are reported, indicating the bacteriostatic power, and by the Table 2, giving the stability values in acidic environment. Without having to be construed in a limiting sense, it seems plausible that the greater stability of the macrolide. antibiotics of the present invention can be attributed to the presence in the molecule of the antibiotic of the neutral sugar oleandrose (J. Antib. (1976) XXIX (7), 728).
(§2) Bacteriostatic power in solid medium of Erythromycin A, Erythromycin B,
(§3) aerobic and anaerobic bacteria, Gram positive and Gram negative minimum
(§4) inhibiting concentrations expressed in mcg/ml.

[13] = test system: Staphylococcus aureus ATCC 14154; experiment: as above; type: cell-based; conditions: Staphylococcus aureus, ATCC14154, LRP 78, Erythromicina resistant, read-out: minimum inhibiting concentration
Excerpt: as §1, §2, §3, §4

Bacillus subtilis LRP 25 = experiment: as above; type: cell-based; conditions: Bacillus subtilis
[14] = test system: Haemophilus influenzae ATCC 19418; experiment: Bacteriostatic power in solid medium (MIC), aerobic Gram negative; type: cell-based; conditions: Haemophilus influenzae, ATCC19418, LRP 213, read-out: minimum inhibiting concentration
Excerpt: as §1, §2, §3, §4

[15] = test system: Pseudomonas aeruginosa LRP 9; experiment: as above; type: cell-based; conditions: Pseudomonas aeruginosa, LRP9, read-out: minimum inhibiting concentration
Excerpt: as §1, §2, §3, §4

Shigella sonnei LRP 5 = experiment: as above; type: cell-based; conditions: Shigella sonnei, LRP5, read-out: minimum inhibiting concentration
Excerpt: as §1, §2, §3, §4

[16] = test system: Neisseria Gonorrhoeae ATCC 19424; experiment: as above; type: cell-based; conditions: Neisseria gonorrhoeae
Escherichia coli LRP 50 = experiment: as above; type: cell-based; conditions: Escherichia coli, LRP50, read-out: minimum inhibiting concentration
[17] = test system: Klebsiella pneumoniae LRP 54; experiment: as above; type: cell-based; conditions: Klebsiella pneumoniae, LRP54, read-out: minimum inhibiting concentration
[18] = test system: Proteus vulgaris ATCC 6380; experiment: as above; type: cell-based; conditions: Proteus vulgaris, ATCC6380, read-out: minimum inhibiting concentration
Salmonella typhi LRP 8 = experiment: as above; type: cell-based; conditions: Salmonella enterica, TYPHI, read-out: minimum inhibiting concentration
[19] = test system: Acholeplasma laidlawii ATCC 23206; experiment: as above; type: cell-based; conditions: Acholeplasma laidlawii
[20] = test system: Mycoplasma hominis I ATCC 14097; experiment: as above; type: cell-based; conditions: Metamycoplasma hominis, ATCC14097, read-out: minimum inhibiting concentration
[21] = test system: Clostridium perfrigens ATCC 3624; experiment: Bacteriostatic power in solid medium (MIC), anaerobic; type: cell-based; conditions: Clostridium, ATCC3624, LRP 206, read-out: minimum inhibiting concentration
[22] = test system: Bacteroides fragilis ATCC 23745; experiment: as above; type: cell-based; conditions: Bacteroides fragilis
[23] = test system: Fusobacterium necrophorum ATCC 27852; experiment: as above; type: cell-based; conditions: Fusobacterium necrophorum
physchem = type: physicochemical; conditions: acidic environment
Excerpt: t 1/2 represents the half life time of the antibiotics as determined by
high pressure liquid phase chromatography (HPLC).

[24] = Relative solubility in water phase (extraction, TLC and HPLC control); type: physicochemical; conditions: relative to P 15148, P 15149 and P 15153; alkaline aqueous phase
Excerpt: Before each extraction the pH of the aqueous phase is brought again to 9.

[25] = known; cited from earlier work
[26] = ATCC6538, read-out: minimum inhibiting concentration
[27] = LRP14, read-out: minimum inhibiting concentration
[28] = LRP7, read-out: minimum inhibiting concentration
[29] = ATCC12958, read-out: minimum inhibiting concentration
[30] = ATCC6303, read-out: minimum inhibiting concentration
[31] = LRP52, read-out: minimum inhibiting concentration
[32] = LRP53, read-out: minimum inhibiting concentration
[33] = ATCC8668, read-out: minimum inhibiting concentration
[34] = LRP197, read-out: minimum inhibiting concentration
[35] = LRP24, read-out: minimum inhibiting concentration
[36] = ATCC9341, read-out: minimum inhibiting concentration
[37] = LRP25, read-out: minimum inhibiting concentration
[38] = ATCC19424, read-out: minimum inhibiting concentration
[39] = ATCC23206, read-out: minimum inhibiting concentration
[40] = ATCC23745, read-out: minimum inhibiting concentration
[41] = ATCC27852, read-out: minimum inhibiting concentration

Row | SMILES | MIC [1, 26] [µg/mL] | MIC [2, 27] [µg/mL] | MIC [3, 28] [µg/mL] | MIC [4, 29] [µg/mL] | MIC [5, 30] [µg/mL] | MIC [6, 31] [µg/mL] | MIC [7, 32] [µg/mL] | MIC [8, 33] [µg/mL] | MIC [9, 34] [µg/mL] | MIC [12] [µg/mL] | MIC [13] [µg/mL] | MIC [14] [µg/mL] | MIC [15] [µg/mL] | MIC (Shigella sonnei LRP 5) [µg/mL] | MIC (Escherichia coli LRP 50) [µg/mL] | MIC [17] [µg/mL] | MIC [18] [µg/mL] | MIC (Salmonella typhi LRP 8) [µg/mL] | MIC [20] [µg/mL] | MIC [21] [µg/mL] | other results
1 | CC[C@H]1OC(=O)[C@H](C)[C@@H](O[C@H]2C[C@H](OC)[C@@H](O)[C@H](C)O2)[C@H](C)[C@@H](O[C@@H]2O[C@H](C)C[C@H](N(C)C)[C@H]2O)[C@](C)(O)C[C@@H](C)C(=O)[C@H](C)[C@@H](O)[C@H]1C [P 15149, 3-O-oleandrosyl-5-O-desosaminyl-erythronolide B] | 0.78 (≈ 1.11 µM) | 0.78 (≈ 1.11 µM) | 0.78 (≈ 1.11 µM) | 0.78 (≈ 1.11 µM) | 0.097 (≈ 0.138 µM) | 0.097 (≈ 0.138 µM) | 0.097 (≈ 0.138 µM) | 0.097 (≈ 0.138 µM) | 0.097 (≈ 0.138 µM) | > 25 | > 25 | 6.25 (≈ 8.88 µM) | > 25 | > 25 | > 25 | > 25 | > 25 | > 25 | > 25 | 12.5 (≈ 17.8 µM) | MIC [10, 35]: 0.049 µg/mL (≈ 0.0696 µM); MIC [11, 36]: 0.097 µg/mL (≈ 0.138 µM); MIC (Bacillus subtilis LRP 25; [37]): 0.039 µg/mL (≈ 0.0554 µM); MIC [16, 38]: 0.195 µg/mL (≈ 0.277 µM); MIC [19, 39]: 12.5 µg/mL (≈ 17.8 µM); MIC [22, 40]: 3.12 µg/mL (≈ 4.43 µM); MIC [23, 41]: > 25 µg/mL; half-life (physchem; pH 2): 18 h; half-life (physchem; pH 3, read-out: t 1/2): > 100 h; half-life (physchem; pH 4, read-out: t 1/2): > 100 h
2 | CO[C@H]1C[C@H](O[C@H]2[C@H](C)[C@@H](O[C@@H]3O[C@H](C)C[C@H](N(C)C)[C@H]3O)[C@](C)(O)C[C@@H](C)C(=O)[C@H](C)[C@@H](O)[C@@H](C)[C@@H](CCO)OC(=O)[C@@H]2C)O[C@@H](C)[C@@H]1O [P 15150, 3-O-oleandrosyl-5-O-desosaminyl-15-hydroxyerythronolide B] | 3.12 (≈ 4.33 µM) | 3.12 (≈ 4.33 µM) | 6.25 (≈ 8.68 µM) | 3.12 (≈ 4.33 µM) | 0.195 (≈ 0.271 µM) | 0.195 (≈ 0.271 µM) | 0.39 (≈ 0.542 µM) | 0.097 (≈ 0.135 µM) | 0.097 (≈ 0.135 µM) | > 25 | > 25 | > 25 | > 25 | > 25 | > 25 | > 25 | > 25 | 25 (≈ 34.7 µM) | > 25 | 6.25 (≈ 8.68 µM) | MIC [10, 35]: 0.097 µg/mL (≈ 0.135 µM); MIC [11, 36]: 0.195 µg/mL (≈ 0.271 µM); MIC (Bacillus subtilis LRP 25; [37]): 3.12 µg/mL (≈ 4.33 µM); MIC [16, 38]: 0.195 µg/mL (≈ 0.271 µM); MIC [19, 39]: 6.25 µg/mL (≈ 8.68 µM); MIC [22, 40]: > 25 µg/mL; MIC [23, 41]: > 25 µg/mL; half-life (physchem; pH 2, read-out: t 1/2): > 100 h; half-life (physchem; pH 3, read-out: t 1/2): > 100 h; half-life (physchem; pH 4, read-out: t 1/2): > 100 h; solubility in water phase [24]: more soluble than the others in water phase
3 | CO[C@H]1C[C@H](O[C@H]2[C@H](C)[C@@H](O[C@@H]3O[C@H](C)C[C@H](N(C)C)[C@H]3O)[C@@H](C)C[C@@]3(CO3)C(=O)[C@H](C)[C@@H](O)[C@@H](C)[C@@H](C)OC(=O)[C@@H]2C)O[C@@H](C)[C@@H]1O [oleandomycin, reference compound] | – | – | – | – | – | – | – | – | – | > 25 | > 25 | > 25 | > 25 | > 25 | > 25 | > 25 | > 25 | > 25 | > 25 | 3.12 (≈ 4.54 µM) | MIC ([1]; ATCC6538, solid medium, LRP 39, read-out: minimum inhibiting concentration): 0.39 µg/mL (≈ 0.567 µM); MIC ([2]; LRP14, solid medium, LRP 14, Penycilline resistant, read-out: minimum inhibiting concentration): 0.39 µg/mL (≈ 0.567 µM); MIC ([3]; LRP7, solid medium, LRP 7, read-out: minimum inhibiting concentration): 1.56 µg/mL (≈ 2.27 µM); MIC ([4]; ATCC12958, solid medium, LRP 61, read-out: minimum inhibiting concentration): 1.56 µg/mL (≈ 2.27 µM); MIC ([5]; ATCC6303, solid medium, LRP 35, read-out: minimum inhibiting concentration): 0.195 µg/mL (≈ 0.283 µM); MIC ([6]; LRP52, solid medium, LRP 52, read-out: minimum inhibiting concentration): 0.195 µg/mL (≈ 0.283 µM); MIC ([7]; LRP53, solid medium, LRP 53, read-out: minimum inhibiting concentration): 0.195 µg/mL (≈ 0.283 µM); MIC ([8]; ATCC8668, solid medium, LRP 34, read-out: minimum inhibiting concentration): 0.195 µg/mL (≈ 0.283 µM); MIC ([9]; LRP197, solid medium, LRP 197, read-out: minimum inhibiting concentration): 0.195 µg/mL (≈ 0.283 µM); MIC ([10]; LRP24, solid medium, LRP 24, read-out: minimum inhibiting concentration): 0.097 µg/mL (≈ 0.141 µM); MIC ([11]; ATCC9341, solid medium, LRP 6, read-out: minimum inhibiting concentration): 0.049 µg/mL (≈ 0.0712 µM); MIC (Bacillus subtilis LRP 25; LRP25, solid medium, LRP 25, read-out: minimum inhibiting concentration): 0.39 µg/mL (≈ 0.567 µM); MIC ([16]; ATCC19424, solid medium, LRP 214, read-out: minimum inhibiting concentration): 0.195 µg/mL (≈ 0.283 µM); MIC ([19]; ATCC23206, solid medium, LRP 204, read-out: minimum inhibiting concentration): 6.25 µg/mL (≈ 9.09 µM); MIC ([22]; ATCC23745, solid medium, LRP 205, anaerobic, read-out: minimum inhibiting concentration): 0.39 µg/mL (≈ 0.567 µM); MIC ([23]; ATCC27852, solid medium, LRP 210, anaerobic, read-out: minimum inhibiting concentration): 6.25 µg/mL (≈ 9.09 µM); toxicity [25]: high toxicity
